# Calls of active or inactive are those of the source.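 How the source made its calls: active means half-maximal concentration for the rise in caspase light signal at or below ten times the top tested dose; inconclusive means flat fit between 30% and 70% activity, or unreliable curve fit; inactive means the rest.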
# Test system: MEF A1-2A-BIM cells, caspase 3/7 luminescence, 3 h
# Assay: inducers of caspase signal in A1-dependent MEFs – cell-based, luminescence, retest, A1 inhibitor project, dose response (AID 2765)
row,SMILES,EC50
1,COc1cccc(/C=N/NC(=O)c2cc3cc([N+](=O)[O-])ccc3s2)c1O,> 35 µM (inactive)
2,COc1ccc(CNC(=O)CN(Cc2ccc(Cl)cc2)S(=O)(=O)c2ccccc2)cc1,> 35 µM (inactive)
3,O=C1Nc2ncccc2OC1CCO (centres undefined),> 35 µM (inactive)
4,COc1ccc(C(O)Cc2nccn2C)cc1 (centres undefined),> 35 µM (inactive)
5,COc1cc2cnc(-c3ccccc3)c(-c3cccc(C(F)(F)F)c3)c2cc1OC,> 35 µM (inactive)
6,CCOc1ccc(-n2c(SCC(=O)Nc3ccc(Br)cc3)nc3n[nH]c(C)c3c2=N)cc1,21.6 µM
7,CCOc1ccccc1/C=C/c1nc2ccccc2[nH]c1=O,> 35 µM (inactive)
8,O=C(O)c1cn(-c2ccccc2)c(=O)c2ccccc12,> 35 µM (inactive)
9,O=C(Cc1ccccc1)Oc1cccc(N2C(=O)CCC2=O)c1,> 35 µM (inactive)
10,COC(=O)Cn1cc(C(=O)C2CC2)c2ccccc21,> 35 µM (inactive)
11,O=C(Nc1nnc(C2CCCCC2)s1)C1CC(=O)N(c2ccc(F)cc2)C1 (centres undefined),> 35 µM (inactive)
12,C=CCOc1c2ccc(C(=O)N(CC)c3ccc(OC)cc3)cc2nn1C,> 35 µM (inactive)
13,N#CC(C#N)=C1C=CC=CN1/C(=C\c1ccccc1Cl)C(=O)c1ccccc1,7.34 µM
14,Cc1sc(NC(=O)CSC2=NCCS2)nc1-c1ccccc1,> 35 µM (inactive)
15,O=C(CNc1cccc(S(=O)(=O)N2CCCC2)c1)Nc1cccc(C(F)(F)F)c1,> 35 µM (inactive)
16,CCN(CC)C(=O)Oc1ccc(Br)c2ccccc12,> 35 µM (inactive)
17,Nc1nonc1-n1nnc(C(=O)N/N=C/c2ccc(Br)cc2)c1CN1CCOCC1,> 35 µM (inactive)
18,COc1cc(CN2CCCC(C(=O)Nc3ccccc3Oc3cccnc3)C2)ccc1F (centres undefined),> 35 µM (inactive)
19,CC(=O)Nc1ccc([N+](=O)[O-])c(CS(=O)(=O)c2ccc(C)cc2)c1[N+](=O)[O-],> 35 µM (inactive)
20,Cc1ccc(N2CCN(C(=S)Nc3ccccc3C)CC2)cc1,> 35 µM (inactive)
21,CCOc1ccc(NC(=O)CSc2nnc(Cc3cccn3C)n2-c2ccc(F)cc2)cc1,> 35 µM (inactive)
22,Nc1ccc(N2CCN(Cc3ccccc3Cl)CC2)c(Cl)c1,> 35 µM (inactive)
23,CCOC(=O)CSC1=N/C(=C/c2ccc(-n3cncn3)cc2)C(=O)N1C(C)=O,25.6 µM

row,SMILES,EC50
1,CCN(CC)CCCN=C(C)c1c(O)n(-c2ccc(C)cc2)c(=O)[nH]c1=O,> 35 µM (inactive)
2,CC[C@H]1CN2CCc3cc(OC)c(OC)cc3[C@@H]2C[C@@H]1C[C@H]1NCCc2cc(OC)c(OC)cc21,> 35 µM (inactive)
3,COc1ccc(/C=C/C(=O)NC(=S)NCCc2ccc(OC)c(OC)c2)cc1,> 35 µM (inactive)
4,CSc1ccccc1NC(=O)CCn1c(=O)sc2ccccc21,> 35 µM (inactive)
5,COCCCNC(=O)c1cccc(S(=O)(=O)N2CC3(C)CC2CC(C)(C)C3)c1 (centres undefined),> 35 µM (inactive)
6,N[C@@]1(C(=O)O)CC[C@@H](C(=O)O)C1,> 35 µM (inactive)
7,O=[N+]([O-])c1ccc(CP(=O)(c2ccccc2)c2ccccc2)cc1,> 35 µM (inactive)
8,O=C(CNC(=O)c1ccc(Br)cc1)NC1CC1,> 35 µM (inactive)
9,CC(C)(C)NC(=O)NC(=O)COC(=O)CNS(=O)(=O)/C=C/c1ccccc1,> 35 µM (inactive)
10,CCOC(=O)c1c(C)oc2c1c(CN1CCN(C(=O)OCC)CC1)c(O)c1ccccc12,8.16 µM
11,O=C1/C(=C\c2c(NCCOCCO)nc3ccccn3c2=O)SC(=S)N1Cc1ccco1,> 35 µM (inactive)
12,Cc1cc(C)cc(NC(=O)/C(C#N)=C/c2cn(CC(=O)NCc3ccco3)c3ccccc23)c1,4.65 µM
13,NS(=O)(=O)c1ccc(S(=O)(=O)c2ccccc2)nc1,> 35 µM (inactive)
14,CN(CC(=O)O)S(=O)(=O)c1ccc2oc3ccccc3c2c1,> 35 µM (inactive)
15,COc1ccc2cc(C)c3nnc(SCC(=O)Nc4nc(-c5ccc(F)cc5)cs4)n3c2c1,9.65 µM
16,O=C(Cn1ncc(Cl)c(Cl)c1=O)NCC1CCCCC1,> 35 µM (inactive)
17,COc1ccccc1NC(=O)Nc1c(C)n(C)n(-c2ccccc2)c1=O,> 35 µM (inactive)
18,CCOC(=O)COc1ccc(S(=O)(=O)N2CCN(c3ccc(OC)cc3)CC2)cc1,> 35 µM (inactive)
19,NS(=O)(=O)c1ccc(CCNC(=O)c2ccc3c(c2)OCCO3)cc1,> 35 µM (inactive)
20,CCCS(=O)(=O)C/C(N)=N/OC(=O)c1ccc(Cl)cc1,> 35 µM (inactive)
21,COc1ccc2sc(N(CCCN(C)C)C(=O)c3ccc(S(=O)(=O)N4CCc5ccccc5C4)cc3)nc2c1,29.5 µM
22,NCC1CCC(C(=O)Oc2ccc(CCC(=O)O)cc2)CC1 (centres undefined),> 35 µM (inactive)
23,CC(C)CC(=O)c1c[nH]c(C(=O)NCc2ccccc2)c1,> 35 µM (inactive)

row,SMILES,EC50
1,O=C1NC(=O)c2cc(NC(=O)C3CCCO3)ccc21 (centres undefined),> 35 µM (inactive)
2,C=CCn1c(SCc2ccc(F)cc2)nnc1-c1sc2nc(C)cc(C)c2c1N,> 35 µM (inactive)
3,CC/C(=C1/C(=O)CC(C)(C)C(C(=O)OC)C1=O)N1CCCC1 (centres undefined),> 35 µM (inactive)
4,CN(C)Cc1ccc(O)c(CCc2ccccc2)n1,> 35 µM (inactive)
5,O=C(CN1CCN(Cc2ccccc2)CC1)Nc1ccc(Br)cc1,> 35 µM (inactive)
6,C=C1C(=O)O[C@@H]2C[C@@H](C)[C@@H]3C=CC(=O)[C@@]3(C)[C@@H](OC(C)=O)[C@H]12,> 35 µM (inactive)
7,O=C(CSc1cccc[n+]1[O-])NC1CCCCC1,> 35 µM (inactive)
8,Cc1cc(C)cc(N(CC(=O)Nc2cccc(C)c2C)S(=O)(=O)c2c(C)[nH]c(=O)[nH]c2=O)c1,> 35 µM (inactive)
9,Cc1cc(C(=O)N2CCN(c3ccc(F)cc3)CC2)on1,> 35 µM (inactive)
10,CCN(CC)S(=O)(=O)c1cc(NC(=O)C2Cc3ccccc3C(=O)O2)ccc1C (centres undefined),> 35 µM (inactive)
11,CNC(C)C(=O)NC(C(=O)N1CCCC1C(=O)NC1CCCc2ccccc21)C(C)C (centres undefined),> 35 µM (inactive)
12,CC1CCN(CCCNC(=O)c2cn(C)c3ccc(S(=O)(=O)N4CCCC4)cc3c2=O)CC1,> 35 µM (inactive)
13,COc1ccc(C(=O)NCc2cccnc2)cc1Br,> 35 µM (inactive)
14,Cc1ccc(CNC(=O)CCS(=O)(=O)c2ccc3c(c2)CC(C)N3C(=O)C2CC2)o1 (centres undefined),> 35 µM (inactive)
15,O=[N+]([O-])/C=C/c1ccc2c(ccn2Cc2ccccc2)c1,12.3 µM
16,CCCn1cc(S(=O)(=O)c2ccc(C)cc2)c(=O)c2cc(OC)c(OC)cc21,> 35 µM (inactive)
17,O=C(NCc1ccccc1Br)c1cccc2c1C(=O)c1ccc(-c3ccc(OC(F)(F)F)cc3)cc1S2(=O)=O,> 35 µM (inactive)
18,CC1=C(C(N)=O)C(c2ccc3c(c2)OCO3)n2nc(-c3cccc(C)c3)nc2N1 (centres undefined),> 35 µM (inactive)
19,CCCCn1c(N2CCCC2)nc2c1c(=O)[nH]c(=O)n2C,> 35 µM (inactive)
20,Cc1ccc(NC(=O)CSc2nc3nc(C)c(Br)cc3[nH]2)cc1F,> 35 µM (inactive)
21,CCCCn1nc(C)c(C(=O)O)c1Cl,> 35 µM (inactive)
22,CCNC(=O)CN(c1ccc(Br)c(C)c1)S(C)(=O)=O,> 35 µM (inactive)
23,COc1ccc(OC)c(S(=O)(=O)NC(C)c2ccc(-n3ccnc3)cc2)c1 (centres undefined),> 35 µM (inactive)

# Reference: PubChem BioAssay AID2765 (Broad Institute, 2010)
